# Data as given in ChEMBL document CHEMBL5212743, “Selectivity Literature for EUbOPEN Chemogenomics Library wave 3” (2023).
# Experiments:
# [1] = molecular target: SRSF protein kinase 1 (Homo sapiens) (UniProt Q96SB4); assay: Selectivity interaction (KinomeScan (DiscoverX)) EUB0000727a SRPK1; conditions: at 100 nM
# [2] = molecular target: Serine/threonine-protein kinase PAK 2 (Homo sapiens) (UniProt Q13177); assay: Selectivity interaction (KinomeScan (DiscoverX)) EUB0000727a PAK2
# [3] = molecular target: Serine/threonine-protein kinase mTOR (Homo sapiens) (UniProt P42345); assay: Selectivity interaction (KinomeScan (DiscoverX)) EUB0000727a MTOR; conditions: at 100 nM
# D(1B) dopamine receptor [4] = molecular target: T1, D(1B) dopamine receptor (Homo sapiens, UniProt P21918); assay: Selectivity interaction (GPCR panel (PDSP screen)) EUB0000727a DRD5
# T1 sequence (P21918 whole entry): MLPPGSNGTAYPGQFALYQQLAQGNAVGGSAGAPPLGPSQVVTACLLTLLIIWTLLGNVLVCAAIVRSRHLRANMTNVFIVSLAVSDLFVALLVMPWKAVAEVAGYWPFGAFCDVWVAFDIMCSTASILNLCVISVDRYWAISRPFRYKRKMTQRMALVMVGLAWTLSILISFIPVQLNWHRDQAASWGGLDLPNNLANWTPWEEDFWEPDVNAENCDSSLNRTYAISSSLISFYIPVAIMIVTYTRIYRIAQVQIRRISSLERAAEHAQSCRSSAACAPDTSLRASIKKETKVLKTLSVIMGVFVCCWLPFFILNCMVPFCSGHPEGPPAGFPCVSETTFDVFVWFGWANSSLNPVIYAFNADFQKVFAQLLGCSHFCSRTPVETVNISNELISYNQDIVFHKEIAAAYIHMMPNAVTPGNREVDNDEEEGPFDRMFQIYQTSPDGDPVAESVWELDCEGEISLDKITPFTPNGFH
# [5] = molecular target: T2, Gamma-aminobutyric acid receptor subunit alpha-1 (Homo sapiens, UniProt P14867); assay: Selectivity interaction (GPCR panel (PDSP screen)) EUB0000301b GABRA1
# T2 sequence (P14867 whole entry): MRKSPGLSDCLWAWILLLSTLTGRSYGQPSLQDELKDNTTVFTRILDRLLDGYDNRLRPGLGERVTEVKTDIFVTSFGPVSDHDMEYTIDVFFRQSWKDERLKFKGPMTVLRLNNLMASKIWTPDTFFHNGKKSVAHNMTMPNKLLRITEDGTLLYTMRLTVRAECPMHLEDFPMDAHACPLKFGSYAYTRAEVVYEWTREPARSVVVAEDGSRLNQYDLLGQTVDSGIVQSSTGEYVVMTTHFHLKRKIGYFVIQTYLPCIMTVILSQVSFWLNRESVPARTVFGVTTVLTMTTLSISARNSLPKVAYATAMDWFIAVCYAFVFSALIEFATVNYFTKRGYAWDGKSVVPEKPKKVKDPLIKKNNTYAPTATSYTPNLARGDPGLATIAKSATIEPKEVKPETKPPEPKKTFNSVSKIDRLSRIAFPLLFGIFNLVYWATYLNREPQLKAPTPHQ
# [6] = molecular target: Cyclin-dependent kinase 8 (Homo sapiens) (UniProt P49336); assay: Selectivity interaction (KinomeScan (DiscoverX)) EUB0000301b CDK8; conditions: at 1 µM
# [7] = molecular target: eIF-2-alpha kinase GCN2 (Homo sapiens) (UniProt Q9P2K8); assay: Selectivity interaction (KinomeScan (DiscoverX)) EUB0000301b EIF2AK4; conditions: at 1 µM
# eIF-2-alpha kinase GCN2 (Homo sapiens), sequence (Q9P2K8 whole entry): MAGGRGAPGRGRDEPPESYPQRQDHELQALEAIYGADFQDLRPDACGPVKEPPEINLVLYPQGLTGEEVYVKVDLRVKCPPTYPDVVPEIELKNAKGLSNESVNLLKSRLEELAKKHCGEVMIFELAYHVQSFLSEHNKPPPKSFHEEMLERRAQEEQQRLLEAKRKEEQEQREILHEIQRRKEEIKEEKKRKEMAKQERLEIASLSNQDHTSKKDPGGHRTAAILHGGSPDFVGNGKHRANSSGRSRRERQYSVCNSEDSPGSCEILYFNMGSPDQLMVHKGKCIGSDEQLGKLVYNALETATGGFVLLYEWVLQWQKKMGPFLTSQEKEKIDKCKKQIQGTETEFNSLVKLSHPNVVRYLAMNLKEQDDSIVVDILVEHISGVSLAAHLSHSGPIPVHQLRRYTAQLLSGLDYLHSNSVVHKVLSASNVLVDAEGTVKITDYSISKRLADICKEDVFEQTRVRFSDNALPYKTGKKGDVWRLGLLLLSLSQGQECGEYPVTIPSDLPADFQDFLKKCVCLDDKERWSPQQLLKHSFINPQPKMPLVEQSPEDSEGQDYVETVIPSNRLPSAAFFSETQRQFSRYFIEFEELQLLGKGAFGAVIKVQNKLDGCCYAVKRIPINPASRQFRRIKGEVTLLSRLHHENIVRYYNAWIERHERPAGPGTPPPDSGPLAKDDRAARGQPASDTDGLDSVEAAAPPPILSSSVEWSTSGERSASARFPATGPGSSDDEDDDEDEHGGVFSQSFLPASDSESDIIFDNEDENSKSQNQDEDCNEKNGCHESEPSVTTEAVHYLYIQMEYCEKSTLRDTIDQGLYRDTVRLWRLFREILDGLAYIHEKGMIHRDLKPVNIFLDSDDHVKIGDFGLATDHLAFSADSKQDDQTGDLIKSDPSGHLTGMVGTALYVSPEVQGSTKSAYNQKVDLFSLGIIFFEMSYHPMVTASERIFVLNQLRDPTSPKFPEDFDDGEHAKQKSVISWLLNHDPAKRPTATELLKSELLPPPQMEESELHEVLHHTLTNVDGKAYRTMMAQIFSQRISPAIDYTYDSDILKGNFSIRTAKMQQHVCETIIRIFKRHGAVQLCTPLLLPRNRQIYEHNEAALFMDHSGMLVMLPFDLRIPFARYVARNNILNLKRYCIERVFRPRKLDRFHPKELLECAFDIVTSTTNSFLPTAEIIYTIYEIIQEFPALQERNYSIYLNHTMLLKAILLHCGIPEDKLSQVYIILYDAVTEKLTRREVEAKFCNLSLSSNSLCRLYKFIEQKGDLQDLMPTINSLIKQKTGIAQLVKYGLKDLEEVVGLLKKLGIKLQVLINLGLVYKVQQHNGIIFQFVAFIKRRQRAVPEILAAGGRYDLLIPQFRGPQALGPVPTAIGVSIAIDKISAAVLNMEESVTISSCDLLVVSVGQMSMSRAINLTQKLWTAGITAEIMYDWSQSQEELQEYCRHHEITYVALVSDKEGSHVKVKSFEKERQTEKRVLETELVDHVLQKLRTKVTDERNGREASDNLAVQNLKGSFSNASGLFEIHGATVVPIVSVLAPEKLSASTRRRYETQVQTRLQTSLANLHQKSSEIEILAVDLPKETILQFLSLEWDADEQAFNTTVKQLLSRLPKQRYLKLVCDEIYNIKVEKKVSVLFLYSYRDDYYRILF
# [8] = molecular target: T3, Sodium-dependent dopamine transporter (Homo sapiens, UniProt Q01959); assay: Selectivity interaction (GPCR panel (PDSP screen)) EUB0000541a SLC6A3
# T3 sequence (Q01959 whole entry): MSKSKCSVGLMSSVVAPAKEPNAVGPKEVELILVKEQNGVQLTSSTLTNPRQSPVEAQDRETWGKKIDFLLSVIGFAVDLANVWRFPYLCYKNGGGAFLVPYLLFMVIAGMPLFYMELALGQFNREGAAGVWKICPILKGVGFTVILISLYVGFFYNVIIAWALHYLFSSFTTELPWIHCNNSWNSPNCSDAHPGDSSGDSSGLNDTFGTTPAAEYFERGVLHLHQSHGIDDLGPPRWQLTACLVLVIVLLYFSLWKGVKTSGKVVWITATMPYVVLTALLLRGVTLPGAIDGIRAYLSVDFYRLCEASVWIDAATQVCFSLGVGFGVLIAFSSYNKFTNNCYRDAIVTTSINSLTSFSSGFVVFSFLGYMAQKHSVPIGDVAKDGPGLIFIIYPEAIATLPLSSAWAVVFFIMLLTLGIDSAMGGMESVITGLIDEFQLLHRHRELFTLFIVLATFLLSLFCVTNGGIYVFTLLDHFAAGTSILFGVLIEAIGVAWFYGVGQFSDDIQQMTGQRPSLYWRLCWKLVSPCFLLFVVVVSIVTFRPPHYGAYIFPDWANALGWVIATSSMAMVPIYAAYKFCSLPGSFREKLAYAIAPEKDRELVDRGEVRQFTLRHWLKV
# Histamine H1 receptor = Histamine H1 receptor (Homo sapiens, UniProt P35367); assay: Selectivity interaction (GPCR panel (PDSP screen)) EUB0001135a HRH1; conditions: at 10 µM
# [9] = molecular target: Beta-3 adrenergic receptor (Homo sapiens, UniProt P13945); assay: Selectivity interaction (GPCR panel (PDSP screen)) EUB0001135a ADRB3; conditions: at 10 µM
# [10] = molecular target: T4, Death-associated protein kinase 3 (Homo sapiens, UniProt O43293); assay: Selectivity interaction (KinomeScan (DiscoverX)) EUB0001135a DAPK3; conditions: at 1 µM
# [11] = molecular target: T5, G protein-coupled receptor kinase 3 (Homo sapiens) (UniProt P35626); assay: Selectivity interaction (KinomeScan (DiscoverX)) EUB0001135a ADRBK2; conditions: at 1 µM
# T5 sequence (whole entry): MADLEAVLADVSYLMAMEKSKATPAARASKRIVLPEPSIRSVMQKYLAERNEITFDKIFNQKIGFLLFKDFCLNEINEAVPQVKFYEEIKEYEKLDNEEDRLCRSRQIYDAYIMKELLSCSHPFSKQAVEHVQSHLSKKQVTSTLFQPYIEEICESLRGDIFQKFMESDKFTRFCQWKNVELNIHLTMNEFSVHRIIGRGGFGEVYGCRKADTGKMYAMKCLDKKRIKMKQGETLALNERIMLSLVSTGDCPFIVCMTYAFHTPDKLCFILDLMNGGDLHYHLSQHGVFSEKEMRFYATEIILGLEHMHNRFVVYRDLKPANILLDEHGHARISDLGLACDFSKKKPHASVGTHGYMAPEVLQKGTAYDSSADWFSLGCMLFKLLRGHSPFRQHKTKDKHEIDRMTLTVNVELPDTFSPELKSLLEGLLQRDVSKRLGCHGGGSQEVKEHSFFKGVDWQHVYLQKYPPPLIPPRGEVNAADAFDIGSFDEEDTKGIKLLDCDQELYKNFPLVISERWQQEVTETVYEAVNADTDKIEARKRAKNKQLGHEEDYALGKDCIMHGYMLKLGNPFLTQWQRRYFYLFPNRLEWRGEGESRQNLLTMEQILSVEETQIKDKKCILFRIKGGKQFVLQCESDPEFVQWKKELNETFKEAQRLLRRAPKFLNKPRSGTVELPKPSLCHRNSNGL
# [12] = molecular target: T4, Death-associated protein kinase 3; assay: Selectivity interaction (KinomeScan (DiscoverX, competition-binding assay)) EUB0001135a DAPK3
# [13] = molecular target: G protein-coupled receptor kinase 3 (Homo sapiens, UniProt P35626); assay: Selectivity interaction (KinomeScan (DiscoverX, competition-binding assay)) EUB0001135a ADRBK2
# [14] = molecular target: T3, Sodium-dependent dopamine transporter; assay: Selectivity interaction (GPCR panel (PDSP screen)) EUB0000741a SLC6A3
# [15] = molecular target: Dual specificity tyrosine-phosphorylation-regulated kinase 1B (Homo sapiens, UniProt Q9Y463); assay: Selectivity interaction (KinomeScan (DiscoverX)) EUB0000297b DYRK1B; conditions: at 1 µM
# [16] = molecular target: T2, Gamma-aminobutyric acid receptor subunit alpha-1; assay: Selectivity interaction (GPCR panel (PDSP screen)) EUB0000297b GABRA1
# [17] = molecular target: Rho-associated protein kinase 1 (Homo sapiens) (UniProt Q13464); assay: Selectivity interaction (KinomeScan (DiscoverX)) EUB0000297b ROCK1; conditions: at 1 µM
# [18] = molecular target: Dual specificity mitogen-activated protein kinase kinase 1 (Homo sapiens, UniProt Q02750); assay: Selectivity interaction (Kinase panel (enzymatic assay)) EUB0000684a MAP2K1
# [19] = molecular target: Dual specificity mitogen-activated protein kinase kinase 2 (Homo sapiens, UniProt P36507); assay: Selectivity interaction (Kinase panel (enzymatic assay)) EUB0000684a MAP2K2
# [20] = molecular target: Sigma intracellular receptor 2 (Homo sapiens, UniProt Q5BJF2); assay: Selectivity interaction (GPCR panel (PDSP screen)) EUB0000310b TMEM97
# [21] = molecular target: Voltage-dependent L-type calcium channel subunit alpha-1C (Homo sapiens, UniProt Q13936); assay: Selectivity interaction (Eurofins Panlabs panel (receptors, ion channel, and other enzymes)) EUB0000310b CACNA1C; conditions: at 10 µM
# Voltage-dependent L-type calcium channel subunit alpha-1C, sequence (Q13936 whole entry): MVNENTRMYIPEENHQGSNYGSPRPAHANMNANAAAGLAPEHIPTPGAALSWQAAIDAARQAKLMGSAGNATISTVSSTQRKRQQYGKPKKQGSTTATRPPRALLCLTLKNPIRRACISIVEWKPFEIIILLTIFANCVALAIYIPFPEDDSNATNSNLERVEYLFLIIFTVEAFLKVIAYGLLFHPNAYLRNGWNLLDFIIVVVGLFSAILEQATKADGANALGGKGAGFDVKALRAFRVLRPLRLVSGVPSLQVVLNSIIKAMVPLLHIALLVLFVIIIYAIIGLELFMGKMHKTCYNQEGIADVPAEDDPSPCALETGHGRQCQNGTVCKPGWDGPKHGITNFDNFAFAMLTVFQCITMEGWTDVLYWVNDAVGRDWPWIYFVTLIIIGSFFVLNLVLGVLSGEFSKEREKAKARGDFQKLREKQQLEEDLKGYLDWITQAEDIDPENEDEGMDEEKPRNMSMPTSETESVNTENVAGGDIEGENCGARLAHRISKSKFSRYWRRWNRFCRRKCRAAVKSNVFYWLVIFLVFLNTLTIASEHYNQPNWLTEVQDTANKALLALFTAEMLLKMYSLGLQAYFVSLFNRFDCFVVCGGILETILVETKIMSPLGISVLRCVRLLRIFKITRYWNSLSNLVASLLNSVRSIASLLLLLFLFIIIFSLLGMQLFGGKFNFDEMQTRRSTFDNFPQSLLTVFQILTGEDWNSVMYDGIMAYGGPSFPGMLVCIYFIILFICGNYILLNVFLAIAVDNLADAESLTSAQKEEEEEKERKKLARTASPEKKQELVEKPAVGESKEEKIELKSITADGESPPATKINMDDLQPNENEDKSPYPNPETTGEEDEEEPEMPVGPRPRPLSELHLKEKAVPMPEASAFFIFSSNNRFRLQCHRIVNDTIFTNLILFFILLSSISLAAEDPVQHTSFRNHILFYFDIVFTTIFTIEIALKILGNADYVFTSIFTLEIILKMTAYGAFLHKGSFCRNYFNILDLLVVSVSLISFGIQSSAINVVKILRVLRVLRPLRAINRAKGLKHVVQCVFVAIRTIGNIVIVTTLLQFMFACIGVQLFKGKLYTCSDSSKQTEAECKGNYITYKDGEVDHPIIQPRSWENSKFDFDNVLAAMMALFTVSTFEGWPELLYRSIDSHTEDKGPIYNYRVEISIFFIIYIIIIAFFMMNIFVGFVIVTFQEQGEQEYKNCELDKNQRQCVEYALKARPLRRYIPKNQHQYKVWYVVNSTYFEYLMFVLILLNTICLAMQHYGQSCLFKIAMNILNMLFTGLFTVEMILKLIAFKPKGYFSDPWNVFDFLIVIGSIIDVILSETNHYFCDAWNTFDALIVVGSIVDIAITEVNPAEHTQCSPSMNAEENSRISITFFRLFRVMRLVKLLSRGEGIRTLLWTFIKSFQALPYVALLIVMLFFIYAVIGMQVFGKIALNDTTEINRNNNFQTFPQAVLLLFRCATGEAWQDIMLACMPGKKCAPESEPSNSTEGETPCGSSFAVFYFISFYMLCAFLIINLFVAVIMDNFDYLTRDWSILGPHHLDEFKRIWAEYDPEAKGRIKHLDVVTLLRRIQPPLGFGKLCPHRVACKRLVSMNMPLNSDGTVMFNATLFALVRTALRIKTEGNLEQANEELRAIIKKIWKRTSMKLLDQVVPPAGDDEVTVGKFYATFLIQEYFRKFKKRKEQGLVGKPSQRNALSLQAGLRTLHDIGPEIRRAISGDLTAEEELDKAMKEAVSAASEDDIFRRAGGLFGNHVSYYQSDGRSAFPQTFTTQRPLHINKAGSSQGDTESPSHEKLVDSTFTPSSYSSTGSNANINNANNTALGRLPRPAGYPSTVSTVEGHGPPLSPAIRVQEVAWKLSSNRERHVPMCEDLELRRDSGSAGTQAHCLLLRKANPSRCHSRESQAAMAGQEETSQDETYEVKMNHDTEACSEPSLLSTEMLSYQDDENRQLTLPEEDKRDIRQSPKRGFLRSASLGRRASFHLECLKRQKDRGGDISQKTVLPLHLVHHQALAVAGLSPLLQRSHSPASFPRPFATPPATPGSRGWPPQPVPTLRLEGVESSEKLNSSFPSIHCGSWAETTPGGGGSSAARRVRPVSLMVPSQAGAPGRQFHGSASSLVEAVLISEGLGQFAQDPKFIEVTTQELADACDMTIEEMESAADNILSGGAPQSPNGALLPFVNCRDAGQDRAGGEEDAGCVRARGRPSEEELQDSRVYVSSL
# [22] = molecular target: Interferon-induced, double-stranded RNA-activated protein kinase (Homo sapiens) (UniProt P19525); assay: Selectivity interaction (KinomeScan (DiscoverX)) EUB0000310b EIF2AK2
# [23] = molecular target: Serine/threonine-protein kinase 38-like (Homo sapiens, UniProt Q9Y2H1); assay: Selectivity interaction (KinomeScan (DiscoverX)) EUB0000310b STK38L
# [24] = molecular target: STE20/SPS1-related proline-alanine-rich protein kinase (Homo sapiens) (UniProt Q9UEW8); assay: Selectivity interaction (KinomeScan (DiscoverX)) EUB0000310b STK39
# [25] = molecular target: Cyclin-dependent kinase 3 (Homo sapiens) (UniProt Q00526); conditions: at 100 nM
# D(1B) dopamine receptor [26] = molecular target: T1, D(1B) dopamine receptor; conditions: at 10 µM
# [27] = molecular target: 5'-AMP-activated protein kinase catalytic subunit alpha-1 (Homo sapiens, UniProt Q13131); assay: Selectivity interaction (Enzyme panel (Invitrogen)) EUB0000730a PRKAA1
# Aurora kinase A = Aurora kinase A (Homo sapiens, UniProt O14965); assay: Selectivity interaction (Enzyme panel (Invitrogen)) EUB0000730a STK6
# Stromelysin-1 = Stromelysin-1 (Homo sapiens, UniProt P08254); assay: Selectivity interaction (MMPs panel (FRET assay)) EUB0000730a MMP3
# Matrilysin = molecular target: T6, Matrilysin (Homo sapiens, UniProt P09237); assay: Selectivity interaction (MMPs panel (FRET assay)) EUB0000730a MMP7
# T6 sequence (P09237 whole entry): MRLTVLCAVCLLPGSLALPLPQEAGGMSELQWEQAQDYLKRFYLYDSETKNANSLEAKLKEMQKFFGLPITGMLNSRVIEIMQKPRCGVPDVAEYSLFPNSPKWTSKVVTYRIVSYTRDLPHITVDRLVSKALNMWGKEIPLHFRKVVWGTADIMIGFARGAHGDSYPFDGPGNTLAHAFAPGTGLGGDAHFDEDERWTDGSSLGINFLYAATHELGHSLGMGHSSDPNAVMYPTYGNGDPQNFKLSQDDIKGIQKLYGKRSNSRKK
# [28] = molecular target: Cyclin-dependent kinase-like 3 (Homo sapiens) (UniProt Q8IVW4); conditions: at 100 nM
# Interstitial collagenase = Interstitial collagenase (Homo sapiens, UniProt P03956); assay: Selectivity interaction (MMPs panel (FRET assay)) EUB0000730a MMP1
# [29] = molecular target: MAP kinase-activated protein kinase 2 (Homo sapiens, UniProt P49137); assay: Selectivity interaction (Enzyme panel (Invitrogen)) EUB0000730a MAPKAPK2
# D(1B) dopamine receptor [30] = molecular target: T1, D(1B) dopamine receptor; assay: Selectivity interaction (GPCR panel (PDSP screen)) EUB0000730a DRD5
# [31] = molecular target: Macrophage metalloelastase (Homo sapiens, UniProt P39900); assay: Selectivity interaction (MMPs panel (FRET assay)) EUB0000730a MMP12
# Neutrophil collagenase = Neutrophil collagenase (Homo sapiens, UniProt P22894); assay: Selectivity interaction (MMPs panel (FRET assay)) EUB0000730a MMP8
# [32] = molecular target: Cyclin-dependent kinase 19 (Homo sapiens) (UniProt Q9BWU1); conditions: at 100 nM
# [33] = molecular target: cAMP-dependent protein kinase catalytic subunit alpha (Homo sapiens, UniProt P17612); assay: Selectivity interaction (Enzyme panel (Invitrogen)) EUB0000730a PRKACA
# [34] = molecular target: Transcription initiation factor TFIID subunit 1 (Homo sapiens, UniProt P21675); assay: Selectivity interaction (BRD panel (HTRF assay)) EUB0000007b TAF1
# [35] = molecular target: Phosphatidylinositol 3-kinase C2 domain-containing subunit gamma (Homo sapiens) (UniProt O75747); assay: Selectivity interaction (KinomeScan (DiscoverX)) EUB0000007b PIK3C2G; conditions: at 1 µM
smiles,measurement,setting,value
Cn1nc(C(=O)NCc2ccc(C(=O)O)cc2)cc1-c1ccc2[nH]ccc2c1 [BI 4395],% of control,[1],33%
same,% of control,[2],23%
same,% of control,[3],31%
same,Ki,D(1B) dopamine receptor [4],> 10000 nM
O=c1nc(-c2ccccn2)sc2ccccc12 [BTZO-1],Ki,[5],934 nM
same,% of control,[6],36%
same,% of control,[7],47%
O=C(Nc1ccc(-n2nc(-c3cccnc3)cc2C(F)(F)F)cn1)c1ccc(-c2ccccc2)c(F)c1 [BI 2049],Ki,[8],> 10000 nM
O=C1NC(c2ccccn2)Sc2ccccc21 (stereo unspecified) [BTZO-4],% of inhibition,Histamine H1 receptor,49.9%
same,% of inhibition,[9],32.4%
same,% of control,[10],0%
same,% of control,[11],42%
same,Kd,[12],> 10000 nM
same,Kd,[13],> 10000 nM
CC(C)(C)OC(=O)N1CCCC1CNC1CCC(c2cc(F)ccc2F)(S(=O)(=O)c2ccc(Cl)cc2)CC1 (stereo unspecified) [GSI-NC],Ki,[14],> 10000 nM
CN([C@@H]1CCc2c(CC(=O)O)c3ccccc3n2C1)S(=O)(=O)c1ccc(F)cc1 [MK-7246],% of control,[15],44%
same,Ki,[16],1110 nM
same,% of control,[17],34%
O=C(c1ccc(F)c(F)c1Nc1ccc(I)cc1F)N1CC(O)([C@@H]2CCCCN2)C1 [COBIMETINIB],IC50,[18],31 nM
same,IC50,[19],23 nM
C[C@H](NC(=O)c1cnc2n1[C@](C)(Cc1ccc(C#N)cc1)C(=O)N2c1cc(Cl)c(F)c(Cl)c1)C(=O)NC1(c2ccccn2)CC1 [BI 1950],% of inhibition,[20],26%
same,% of inhibition,[21],72%
same,% of control,[22],34%
same,% of control,[23],49%
same,% of control,[24],24%
CCOC(=O)c1cc2cc(-c3cc(C(=O)NCc4ccc(C(=O)O)cc4)nn3C)ccc2[nH]1 [BI 4394],% of control,[25],43%
same,% of inhibition,D(1B) dopamine receptor [26],60%
same,IC50,[27],1900 nM
same,IC50,Aurora kinase A,1300 nM
same,IC50,Stromelysin-1,> 22000 nM
same,IC50,Matrilysin,> 22000 nM
same,% of control,[28],0%
same,IC50,Interstitial collagenase,> 22000 nM
same,IC50,[29],1100 nM
same,Ki,D(1B) dopamine receptor [30],> 10000 nM
same,IC50,[31],> 22000 nM
same,IC50,Neutrophil collagenase,> 22000 nM
same,% of control,[32],0%
same,IC50,[33],1600 nM
CN(C)C(=O)/C(C#N)=C/c1ccc(-c2nc3cnc4c(ccn4C)c3n2C2CCCCC2)o1,IC50,[34],170 nM
same,% of control,[35],82%
